Data on 13 compounds can be found in patent US9242933B2 (AbbVie Deutschland GmbH & Co. KG, priority 2007, dated 2016).

The target in one test is mGlu3 (Homo sapiens, UniProt Q14832). The conditions noted are these: agonist; cited from earlier work.
A further test addresses T1, human mGlu2 receptor (Homo sapiens, UniProt Q14416).
T1 construct: expressed in transfected cells; host or cells: HEK293
The test is described as follows: FLIPR intracellular Ca2+ assay, potentiation of glutamate response in HEK293 clone expressing mGlu2 receptor, rGLAST and Galpha16. The test is classed as cell-based. The conditions noted are these: 1 μM glutamate added ten minutes after test compound, HEK293 cells with human mGlu2, rGLAST, Galpha16, read-out: EC50 values of potentiation effect to glutamate. Put shortly:
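HEK293 cells stably expressing human mGlu2, rat GLAST and Gα16 were loaded with 2 µM Fluo-4 AM and intracellular Ca2+ read by FLIPR. Compound added alone (agonism), then with submaximal glutamate (e.g. 1 µM; potentiation). Background-subtracted peaks normalized to 100 µM glutamate response; EC50 from four-parameter fit.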

In general, EC50 refers to the midpoint of the concentration-response curve.

Bounds are passed on as bounds.

T1 sequence (Q14416 19-872): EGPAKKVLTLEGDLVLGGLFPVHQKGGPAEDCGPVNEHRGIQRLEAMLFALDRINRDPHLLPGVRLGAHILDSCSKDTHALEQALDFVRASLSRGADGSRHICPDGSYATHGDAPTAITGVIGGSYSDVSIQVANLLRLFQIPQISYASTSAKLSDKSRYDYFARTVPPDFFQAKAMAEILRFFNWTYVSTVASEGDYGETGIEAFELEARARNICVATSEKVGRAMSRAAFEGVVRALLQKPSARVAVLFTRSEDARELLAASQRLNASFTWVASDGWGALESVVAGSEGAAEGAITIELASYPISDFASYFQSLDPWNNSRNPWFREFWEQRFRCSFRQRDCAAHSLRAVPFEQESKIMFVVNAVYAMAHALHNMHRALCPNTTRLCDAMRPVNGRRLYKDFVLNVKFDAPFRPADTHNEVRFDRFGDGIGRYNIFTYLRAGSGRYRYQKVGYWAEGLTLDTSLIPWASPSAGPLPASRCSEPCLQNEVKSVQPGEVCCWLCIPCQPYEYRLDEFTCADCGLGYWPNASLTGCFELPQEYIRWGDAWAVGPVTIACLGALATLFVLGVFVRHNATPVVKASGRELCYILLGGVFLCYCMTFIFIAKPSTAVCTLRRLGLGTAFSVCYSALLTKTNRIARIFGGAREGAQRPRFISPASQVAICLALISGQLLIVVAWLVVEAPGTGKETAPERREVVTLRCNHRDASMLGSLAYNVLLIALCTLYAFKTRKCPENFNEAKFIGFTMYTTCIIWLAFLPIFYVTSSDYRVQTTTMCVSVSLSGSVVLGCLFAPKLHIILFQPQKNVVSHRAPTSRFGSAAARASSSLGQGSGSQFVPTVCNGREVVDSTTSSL
Sequence of mGlu3 (Q14832 23-879): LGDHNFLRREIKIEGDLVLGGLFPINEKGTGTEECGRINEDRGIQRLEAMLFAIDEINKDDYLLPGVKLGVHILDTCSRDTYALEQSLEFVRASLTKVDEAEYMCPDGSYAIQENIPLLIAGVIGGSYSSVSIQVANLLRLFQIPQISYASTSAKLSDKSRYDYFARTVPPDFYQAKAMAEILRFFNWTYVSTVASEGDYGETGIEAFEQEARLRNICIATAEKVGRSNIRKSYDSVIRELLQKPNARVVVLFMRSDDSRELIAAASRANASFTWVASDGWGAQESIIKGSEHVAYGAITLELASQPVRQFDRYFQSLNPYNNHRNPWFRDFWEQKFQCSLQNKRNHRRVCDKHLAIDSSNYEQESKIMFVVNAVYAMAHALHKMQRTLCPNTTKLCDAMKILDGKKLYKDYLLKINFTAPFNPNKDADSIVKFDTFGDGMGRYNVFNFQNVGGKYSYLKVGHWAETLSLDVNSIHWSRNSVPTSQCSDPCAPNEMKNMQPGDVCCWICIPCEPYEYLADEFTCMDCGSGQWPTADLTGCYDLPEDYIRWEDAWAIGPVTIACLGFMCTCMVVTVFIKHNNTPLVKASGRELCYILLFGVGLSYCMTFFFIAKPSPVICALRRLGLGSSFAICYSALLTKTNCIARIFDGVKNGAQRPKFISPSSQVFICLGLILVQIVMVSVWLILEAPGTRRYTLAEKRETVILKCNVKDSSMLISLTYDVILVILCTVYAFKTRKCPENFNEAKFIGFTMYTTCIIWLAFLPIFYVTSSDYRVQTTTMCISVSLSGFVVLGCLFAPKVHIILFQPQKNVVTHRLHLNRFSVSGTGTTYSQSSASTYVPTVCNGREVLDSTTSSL

As for `N[C@@]1(C(=O)O)CC[C@H]2[C@H](C(=O)O)[C@H]21` [LY354740], the concentration giving a half-maximal response (EC50) at mGlu3 was 20 nM.

As for `N[C@@]1(C(=O)O)CO[C@H]2[C@H](C(=O)O)[C@H]21` [LY379268], the concentration giving a half-maximal response (EC50) at mGlu3 was 5 nM.

Take `CCCCN1Cc2cc(OCc3c[nH]nc3-c3cccc(C(F)(F)F)c3)ccc2C1=O` [Example 545, 2-Butyl-5-[3-(3-trifluoromethyl-phenyl)-1H-pyrazol-4-ylmethoxy]-2,3-dihydro-isoindol-1-one]: the concentration for a half-maximal effect (EC50) at human mGlu2 receptor is under 1000 nM.

For the compound `CCCC(=O)c1ccc(NCc2cn(-c3ccccc3)nc2-c2cccnc2)cc1` [Example 222, 1-{4-[(1-Phenyl-3-pyridin-3-yl-1H-pyrazol-4-ylmethyl)-amino]-phenyl}-butan-1-one], the EC50 at human mGlu2 receptor fell in the range of 1000 to 10000 nM.

In the case of `CC(C)(C)c1n[nH]cc1CNc1ccc(OC(F)(F)Cl)cc1` [Example 281, (3-tert-Butyl-1H-pyrazol-4-ylmethyl)-[4-(chloro-difluoro-methoxy)-phenyl]-amine], on human mGlu2 receptor, the EC50 was 1000 to 10000 nM.

For `O=C1c2ccc(OCc3c[nH]nc3-c3ccc(C(F)(F)F)cc3)cc2CN1CCC(F)(F)F` [Example 542, 5-[3-(4-Trifluoromethyl-phenyl)-1H-pyrazol-4-ylmethoxy]-2-(3,3,3-trifluoro-propyl)-2,3-dihydro-isoindol-1-one], the half-maximal effective concentration (EC50) at human mGlu2 receptor is under 1000 nM.

`CCC(CC)Oc1cccc(N(Cc2c[nH]nc2-c2ccc(C(F)(F)F)cc2)S(=O)(=O)CC(F)(F)F)c1` [Example 454, 2,2,2-Trifluoro-ethanesulfonic acid [3-(1-ethyl-propoxy)-phenyl]-[3-(4-trifluoromethyl-phenyl)-1H-pyrazol-4-ylmethyl]-amide]: the half-maximal effective concentration (EC50) at human mGlu2 receptor is 1000 to 10000 nM.

For the compound `CCCC(=O)c1ccc(OCc2c[nH]nc2-c2ccc(C(F)(F)F)cc2)cc1` [Example 494, 1-{4-[3-(4-Trifluoromethyl-phenyl)-1H-pyrazol-4-ylmethoxy]-phenyl}-butan-1-one], the half-maximal effective concentration (EC50) at human mGlu2 receptor is under 1000 nM.

As for `CC(=O)c1ccc(OCc2c[nH]nc2-c2ccc(C(F)(F)F)cc2)cc1C` [Example 487, 1-{2-Methyl-4-[3-(4-trifluoromethyl-phenyl)-1H-pyrazol-4-ylmethoxy]-phenyl}-ethanone], at human mGlu2 receptor, the EC50 fell in the range of 1000 to 10000 nM.

In the case of `CCCC(=O)c1ccc(NCc2c[nH]nc2-c2ccc(F)cc2)cc1` [Example 508, 1-(4-{[3-(4-Fluorophenyl)-1H-pyrazol-4-ylmethyl]-amino}-phenyl)-butan-1-one], the 50% effective concentration (EC50) on human mGlu2 receptor was under 1000 nM.

On to `O=C1c2ccc(OCc3c[nH]nc3-c3ccc(Cl)c(Cl)c3)cc2CN1CCCC(F)(F)F` [Example 554, 5-[3-(3,4-dichloro-phenyl)-1H-pyrazol-4-ylmethoxy]-2-(4,4,4-trifluoro-butyl)-2,3-dihydro-isoindol-1-one], for which the EC50 on human mGlu2 receptor was under 1000 nM.

For the compound `CC(=O)c1ccc(NCc2c[nH]nc2-c2ccc(C(F)(F)F)cc2)cc1` [Example 501, 1-(4-{[3-(4-Trifluoromethyl-phenyl)-1H-pyrazol-4-ylmethyl]-amino}-phenyl)-ethanone], at human mGlu2 receptor, the concentration giving a half-maximal response (EC50) lay within 1000 to 10000 nM.

For `CCCC(=O)c1cccc(NCc2n[nH]cc2-c2ccc(OC)cc2)c1` [Example 514, 1-(3-{[4-(4-Methoxy-phenyl)-1H-pyrazol-3-ylmethyl]-amino}-phenyl)-butan-1-one], the half-maximal effective concentration (EC50) on human mGlu2 receptor fell in the range of 1000 to 10000 nM.
